Experimental findings from US6355785B1, “Guanosine-rich oligonucleotide integrase inhibitors” (Aronex Pharmaceuticals, Inc., priority 1993, dated 2002) are described below.

Where two headings read alike, the source gives them in different places.

On the set-up of data set [1]: species or system cynomolgus monkeys. The note with it: cynomolgus monkey, in vivo. Here is the method: Dosing. Twelve experimentally naive cynomolgus monkeys were assigned to four groups of three animals each. Prior to dosing, each animal was lightly sedated with a combination of ketamine (1 0 mg/kg) and diazepam (0.5 mg/kg), and a catheter was introduced into the femoral artery for recording central arterial pressure. Monkeys were given a single intravenous infusion of 5, 20, or 50 mg AR177/kg or saline over ten minutes through a cephalic vein catheter using a Harvard infusion pump. Arterial blood samples were drawn at −10, +10, +20, +40, +60 and +120 minutes relative to the initiation of infusion into EDTA-containing tubes for hematology, complement factors, coagulation assay, serum chemistry, and plasma AR177 determination. At 24 hours post-infusion, blood was drawn via the femoral vein into EDTA-containing tubes for these same parameters. The concentration of AR177 in dosing solutions was confirmed post experiment by absorbance at 280 nm on a spectrophotometer. For the determination of AR177 by HPLC, the plasma fraction was obtained by low speed centrifugation of blood, and stored at −20° C. until used. Electrocardiograms (ECGs), central pressure, and heart rate were recorded continuously for 120 minutes following the initiation of doing. Table E-1 summarizes the study design. The animals were observed twice daily pharmacotoxic signs and general health beginning two days before dosing and for seven days following dosing. The monkeys were not necropsied at the end of the study.
Hematology and coagulation parameters. The following are determined: red blood cell count and morphology, total and differential white blood cells, hemoglobin, hematocrit, prothrombin time, fibrinogen, mean cell hemoglobin, mean corpuscular volume, mean corpuscular hemoglobin concentration, platelet count, and activated partial thromboplastin time. Hematology parameters were determined at Sierra Nevada Laboratories (Reno, Nev.).

A further data set concerns HIV-1IIIB. Put plainly: Time of drug addition study, MT-4 cells (p24). Type of data set: cell-based. The following applies: 100-fold IC50, MOI 1, p24 at 29 hour.
Data set [2] has as its system HIV-1 laboratory isolates. Put plainly: HIV-1 infection of PBMCs (p24). Type of data set: cell-based. The following applies: read-out: IC50 viral production.
The target in data set [3] is recombinant HIV-1 integrase (wild-type) (Human immunodeficiency virus type 1 group M subtype B, UniProt P12497). Briefly: HIV-1 integrase 3′-processing and strand transfer assays. Type of data set: biochemical. The arrangement: Purified recombinant HIV-1 integrase enzyme (wild-type) was a generous gift from Dr. R. Craigie; purchased gift of Dr. R. Craigie, Laboratory of Molecular Biology, NIDDK (not bought).

A further data set has as its system HIV-1 clinical isolates. Briefly: microbe, parasite or virus in culture. Format: cell-based.
Where [4] appears, read: 3′-processing, read-out: Anti-Integrase Assay IC50 3′-proc.
The mark [5] stands for this setting: strand transfer, read-out: Anti-Integrase Assay IC50 strand tran.

For the molecule “5′-gtggtgggtgggtgggt-3′ (GTGGTGGGTGGGTGGGT; phosphorothioate termini, further chemistry not given here) [T30177, pPT version of parent compound I100-15, 17 mer]”, the “anticoagulant potency, less potent than thrombin-binding aptamer oligonucleotide” value in data set [1] is 40 fold. Further, the hematology values result in data set [1] is on record as “no changes in hematology values attributable to AR177”. Besides, the “delay of drug addition post-infection at which inhibitory effect is lost” value in the data set on HIV-1IIIB was “one hour”. Besides, the half-inhibitory concentration (IC50) in data set [2] (HIV-1 IIIB) was determined as 120 nM; in data set [2] (HIV-1 JRCSF), 280 ± 40 nM; in data set [2] (HIV-1 MN), 1350 ± 100 nM; in data set [2] (HIV-1 RF), 750 ± 130 nM.

With `Cc1cn([C@H]2C[C@H](N=[N+]=[N-])[C@@H](CO)O2)c(=O)[nH]c1=O` [AZT, 3′-azido-3′-deoxythymidine], the IC50 in data set [3] (setting [4]) is over 1000 nM; in data set [3] (setting [5]), over 1000 nM; in the data set with HIV-1 clinical isolates (Human immunodeficiency virus 1, read-out: IC50 values over the clinical isolates tested in PBLs, range over isolates) it was 10 to 1650 nM; in the data set with HIV-1 clinical isolates (Human immunodeficiency virus 1, read-out: IC50 viral production, PBLs, clinical isolate 942716) it was 2 ± 3 nM; with HIV-1 clinical isolates (Human immunodeficiency virus 1, read-out: IC50 viral production, PBLs, clinical isolate 942751), 28 ± 2.5 nM; in the data set on HIV-1 clinical isolates (Human immunodeficiency virus 1, read-out: IC50 viral production, PBLs, clinical isolate BAKI (SI)), 20 ± 6 nM. The IC50 in the data set on HIV-1 clinical isolates (Human immunodeficiency virus 1, read-out: IC50 viral production, PBLs, clinical isolate BLCH (NSI)) was 22 ± 0.8 nM; in the data set on HIV-1 clinical isolates (Human immunodeficiency virus 1, read-out: IC50 viral production, PBLs, clinical isolate JOGA (NSI)), over 1000 nM; with HIV-1 clinical isolates (Human immunodeficiency virus 1, read-out: IC50 viral production, PBLs, clinical isolate N. Amer. #1), 10 ± 4 nM; in the data set on HIV-1 clinical isolates (Human immunodeficiency virus 1, read-out: IC50 viral production, PBLs, clinical isolate N. Amer. #2), 1650 ± 7 nM; in the data set with HIV-1 clinical isolates (Human immunodeficiency virus 1, read-out: IC50 viral production, PBLs, clinical isolate ROJO (SI)), 52 ± 0.4 nM; with HIV-1 clinical isolates (Human immunodeficiency virus 1, read-out: IC50 viral production, PBLs, clinical isolate S. E. Asia) it was 60 ± 5 nM. The IC50 in the data set on HIV-1 clinical isolates (Human immunodeficiency virus 1, read-out: IC50 viral production, PBLs, clinical isolate VIHU (NSI)) came to 36 ± 0.7 nM; in the data set with HIV-1 clinical isolates (Human immunodeficiency virus 1, read-out: IC50 viral production, PBLs, clinical isolate WEJO (SI)), 17 ± 0.1 nM; in the data set on HIV-1 clinical isolates (Human immunodeficiency virus 1, read-out: IC50 viral production, PBLs, clinical isolate WOME (SI)), 25 ± 0.3 nM; in data set [2] (Human immunodeficiency virus 1, IIIB, PBMC, HIV-1 IIIB) it was 3 ± 0.2 nM; in data set [2] (Human immunodeficiency virus 1, PBMC, HIV-1 JRCSF) it was 2.5 ± 1 nM; in data set [2] (Human immunodeficiency virus 1, PBMC, HIV-1 MN), 53 ± 1 nM. For the same molecule, the IC50 in data set [2] (Human immunodeficiency virus 1, PBMC, HIV-1 RF) is 272 ± 3 nM. In addition, the “delay of drug addition post-infection at which inhibitory effect is lost” value with HIV-1IIIB is 3 or 4 hours post-infection.

Take “5′-gtggtgggtgggtgggt-3′ [T30177] (GTGGTGGGTGGGTGGGT; phosphorothioate termini, further chemistry not given here) [pPT version of parent compound I100-15, 17 mer]”: in data set [3], the “increase in potency (3′-processing) with magnesium instead of manganese” value is reported as “four to five-fold”. The IC50 was 92 nM in data set [3] (setting [4]); 55 nM in data set [3] (HIV-1 integrase, read-out: IC50 3′-processing); 49 nM in data set [3] (read-out: Enzyme IC50 3-′process); 79 nM in data set [3] (read-out: Enzyme IC50 Stran Trans); 46 nM in data set [3] (setting [5]); 860 ± 6 nM with HIV-1 clinical isolates (PBLs, clinical isolate 942716, read-out: IC50 viral production). Besides, the IC50 in the data set on HIV-1 clinical isolates (PBLs, clinical isolate 942751, read-out: IC50 viral production) stood at 380 ± 3 nM; in the data set on HIV-1 clinical isolates (PBLs, clinical isolate BAKI (SI), read-out: IC50 viral production), 230 ± 5 nM; in the data set on HIV-1 clinical isolates (PBLs, clinical isolate BLCH (NSI), read-out: IC50 viral production), 3080 ± 6 nM; in the data set with HIV-1 clinical isolates (PBLs, clinical isolate JOGA (NSI), read-out: IC50 viral production), 330 ± 4 nM; in the data set with HIV-1 clinical isolates (PBLs, clinical isolate N. Amer. #1, read-out: IC50 viral production) it was 250 ± 3 nM; with HIV-1 clinical isolates (PBLs, clinical isolate N. Amer. #2, read-out: IC50 viral production), 2920 ± 5 nM. Besides, the IC50 in the data set with HIV-1 clinical isolates (PBLs, clinical isolate ROJO (SI), read-out: IC50 viral production) amounted to 3900 ± 20 nM; in the data set on HIV-1 clinical isolates (PBLs, clinical isolate S. E. Asia, read-out: IC50 viral production), 580 ± 3 nM; with HIV-1 clinical isolates (PBLs, clinical isolate VIHU (NSI), read-out: IC50 viral production), 1300 ± 20 nM; with HIV-1 clinical isolates (PBLs, clinical isolate WEJO (SI), read-out: IC50 viral production), 300 ± 10 nM; with HIV-1 clinical isolates (PBLs, clinical isolate WOME (SI), read-out: IC50 viral production) it was 710 ± 2 nM. The “no effect plasma AR177 concentration versus aPTT” value in data set [1] is recorded as 60-100 ug AR177/mL. Besides, the “plasma AR177 concentration at doubling of aPTT” value in data set [1] is 100-250 ug AR177/mL. For the same molecule, the “plasma AR177 concentration at tripling of aPTT” value in data set [1] is recorded as 250-300 fig AR177/mL.

As usually defined, the IC50 is the concentration that inhibits the measured activity by half.
